One series concerns E. coli. Conditions: cited from earlier work.
The test system of series [1] is Gram-negative species and fungi. Conditions: cited from earlier work.
Another series deals with P. aeruginosa. The conditions noted are these: cited from earlier work.
The subject of a further series is Dehalococcoides. Description: qRT-PCR of Dehalococcoides 16S rRNA genes in DehaloR̂2 cultures. It is filed as cell-based. Conditions: for effect on growth / gene copy number of Dehalococcoides in DehaloR̂2 cultures: 1.5 μM TCC or 35 μM TCS. On the procedure:
Quantitative real-time PCR (qRT-PCR) was performed for enumeration of general 16S rRNA genes and Dehalococcoides 16S rRNA genes in culture DehaloR̂2 and Bio-Dechlor INOCULUM. The primers used for general 16S rRNA genes were Bac1055F (5′-ATG GYT GTC GTC ACCT-3′) and Bac1392R (5′-ACG GGC GGT GTG TAC-3′) (Ritalahti et al., 2006), and the probe was Bac16sTaq (FAM-CAA CGA GCG CAA CCC/3-BHQ-1/). The final volume of PCR reactions was 10 μL, and the final concentration of each chemical in a single reaction tube was: 1× RealMasterMix (Fisher Scientific, Pittsburgh, Pa.), 300 nM Probe, 300 nM each Primer, and 130 nM DNA samples. The PCR conditions were as follows: 2 min at 95° C. followed by 40 cycles of 10 s at 95° C., 20 s at 56° C. and 20 s at 68° C. The primers used for Dehalococcoides 16S rRNA genes were Dhc1200F (5′-CTGGAGCTAATCCCCAAAGCT-3′) and Dhc1271R (5′-CAA CTT CAT GCA GGC GGG-3′), and the probe was Dhc1240Pr (FAM-TCCTCAGTTCGGATTGCAGGC TGAA/3-BHQ-1) (He et al., 2003b). The final volume of PCR reactions was 10 μL, and the final concentration of each chemical in a single reaction tube was: 1× RealMasterMix (Fisher Scientific, Pittsburgh, Pa.), 200 nM Probe, 700 nM each Primer, and 130 nM DNA samples. The PCR conditions were as follows: 2 min at 95° C. followed by 40 cycles of 15 s at 95° C., 20 s at 58° C. and 20 s at 68° C.
Quantitative Real time PCR (qRT-PCR) was carried out in a spectrofluorimetric thermal cycler (Master cycler, epgradient S, Eppendorf). Calibration curves were performed in triplicate and a linear range of 6 orders of magnitude was obtained. Plasmids containing Dehalococcoides strain BAV1 16S rRNA genes were used as standards to construct general 16S rRNA genes and Dehalococcoides 16S rRNA genes calibration curves. The slopes of the calibration curves for general 16S rRNA genes and Dehalococcoides 16S rRNA genes were −3.46 and −3.94, and the Y intercepts were 38 and 44.2, respectively.
DNA Extraction and Quantitative Real-Time PCR. The BDI cultures and DehaloR^2 cultures were shaken vigorously first and then 10 ml of the mixed liquid was removed with a sterile syringe and dispensed into 10 1.5 ml micro centrifuge tubes. These micro centrifuge tubes were then centrifuged at 13,000 rpm for 15 min in order to make a pellet, and the pellet was used for DNA extraction. Qiagen DNeasy Blood & Tissue Kit with modifications to enhance lysis was used for DNA isolation from cultures. DNA samples were stored at −20° C.
Quantitative real-time PCR (qRT-PCR) was performed for enumeration of general 16S rRNA genes and Dehalococcoides 16S rRNA genes in BDI culture without TCC&TCS, BDI culture with 1.5 μM TCC, BDI culture with 35 μM TCS, D DehaloR̂2 culture without TCC&TCS, DehaloR^2 culture with 1.5 μM TCC and DehaloR̂2^2 culture with 35 μM TCS.
The primers used for Dehalococcoides 16S rRNA genes were Dhc1200F (5′-[…]-3′) and Dhc1271R (5′-CAACTTCATGCAGGCGGG-3′), and the probe was Dhc1240Pr (FAM-[…]/3-BHQ-1) (He et al., 2003b). The final volume of PCR reactions was 10 μL, and the final concentration of each chemical in a single reaction tube was: 1× RealMasterMix (Fisher Scientific, Pittsburgh, Pa.), 200 nM Probe, 700 nM each Primer, and 130 nM DNA samples. The PCR conditions were as follows: 2 min at 95° C. followed by 40 cycles of 15 s at 95° C., 20 s at 58° C. and 20 s at 68° C.
The qRT-PCR was carried out in a spectrofluorimetric thermal cycler (Master cycler, epgradient S, Eppendorf). […]

The test system of the next series is aquatic organisms. Conditions: according to PBT Profiler; cited from earlier work.
The conditions of series [2]: cited from earlier work.
For a further series, the system named is MRSA. The conditions noted are these: cited from earlier work.
The test system of series [3] is Gram-positive bacteria, such as staphylococcus. Conditions: cited from earlier work.
The subject of series [4] is algae, aquatic invertebrates and fish. The conditions noted are these: cited from earlier work.
For series [5] the following is noted: continuous-flow activated sludge, 0.5 to 2 mg/L TCS (Stasinakis et al., 2007); cited from earlier work.
The subject of another series is North American bullfrog. Conditions: alters thyroid hormone-mediated postembryonic development; cited from earlier work.
Another series has as its system Scenedesmus subspicatus. The conditions noted are these: cited from earlier work.
A further series concerns Rainbow trout. The conditions noted are these: in vivo; cited from earlier work.

Entries after “also recorded” stand apart in the source; their conditions may differ. Like-named read-outs stand apart in the source and are kept apart here.

As for `O=C(Nc1ccc(Cl)cc1)Nc1ccc(Cl)c(Cl)c1` [TCC, 3-(4-chlorophenyl)-1-(3,4-dichlorphenyl) urea], the “activity in MIC experiments” value in the series on E. coli is reported as “not”. In series [1], the “concentration needed to inhibit Gram-negative species and fungi” value is 1000 mg/L. Also, in the series with P. aeruginosa, the “activity in MIC experiments” value is reported as “not”. Besides, the “effect on growth / gene copy number of Dehalococcoides in DehaloR̂2 cultures” value with Dehalococcoides is reported as “did not exert any inhibitory effect on the growth of Dehalococcoides”. In the series with Dehalococcoides (DehaloR̂2 with 1.5 μM TCC), the “Dehalococcoides 16S rRNA gene copies, day 22” value is 3.9×10^7 gene copies/ml; the “Dehalococcoides 16S rRNA gene copies, day 22 relative to initial” value was found to be 11.6 times; the “Dehalococcoides 16S rRNA gene copies, initial” value is given as 3.3×10^6 gene copies/ml. The “concentration toxic to aquatic organisms” value with aquatic organisms was 90000 ng/mL. In addition, in series [2] (TCC 20 μg/L), the biodegradation is listed as 60%. The biodegradation in [2] (TCC 2000 μg/L) is listed as 70%. In addition, in [2] (bench scale CFAS system), the “biodegradation of the dichloroaniline ring” value is 25.9% and the “biodegradation of the p-chloroaniline ring” value is listed as 56%. The “activity in MIC experiments” value in the series with MRSA is “showed activity”. In addition, in series [3], the “concentration that effectively inhibits Gram-positive bacteria” value is 100 to 200 µg/L. Also, in series [4], the “Predicted No Effect Concentration (PNEC)” value was 0.146 µg/L and the “ratio of PEC/PNEC” value is reported as 0.009 to 0.34.
Consider `Oc1cc(Cl)ccc1Oc1ccc(Cl)cc1Cl` [TCS, 5-chloro-2-[2,4-dichloro-phenoxy]-phenol], for which, in series [5], the “removed by biodegradation and sorption” value was 90%. Also, the “concentration acting as an endocrine disruptor” value with North American bullfrog was 0.15 ± 0.03 ng/mL. Also, in the series with Scenedesmus subspicatus, the “96-h effective concentration (EC50) for growth” value is 0.0014 µg/mL and the “96-h no-observed effect concentration (NOEC)” value was 0.69 µg/L. Also, the “effect on growth / gene copy number of Dehalococcoides in DehaloR̂2 cultures” value in the series on Dehalococcoides was “almost remained constant; also recorded: significantly inhibited the growth of Dehalococcoides”. Further, in the series with Rainbow trout, the NOEC is 34 µg/L and the “median EC50” value is 0.35 µg/mL.

These data come from patent US20120178147A1, “MICROBIAL CULTURES AND METHODS FOR ANAEROBIC BIOREMEDIATION” (priority 2009, published 2012).
